Data on one compound can be found in patent US11814652B2, “Pluripotent stem cell differentiation-promoting agent” (Oriental Yeast Co., Ltd., priority 2018, dated 2023).

Assay [1] relates to human iPS cell strain 201B7. The assay is described as follows: RT-PCR of marker expression in iPS cells cultured in E6 differentiation-inducing medium with β-NMN (Example 1). In kind it is cell-based. Conditions: 3rd and 7th day after seeding, β-NMN 0.25 or 1 mM in E6 medium, compared to cells cultured in the absence of β-NMN. The procedure: The effect of β-NMN on the differentiation of three germ layers of the iPS cells was examined. As the iPS cells, the human iPS cell strain 201B7 was used. A U-bottom shape 96-well plate “Nunclon Sphera 96 U-well plate” (manufactured by Thermo Fisher Scientific) was seeded with iPS cells at 10,000 cells/well, and cultured in an E6 culture medium (manufactured by Gibco) as a differentiation-inducing culture medium adjusted to have a final concentration of β-NMN of 0, 0.25 or 1 mM, and a final concentration of Rock inhibitor of 10 μM for 1 day. The Rock inhibitor was added to suppress Rho-dependent apoptosis. On the 1st and 5th days after seeding, the culture medium was replaced with a culture medium obtained by removing the Rock inhibitor from the culture medium at the time of seeding. Cells on the 3rd and 7th days after seeding were sampled and subjected to RT-PCR to investigate the expression levels of undifferentiated markers (Nanog, Sox2, Oct3/4, Lin28a, Klf4), endoderm markers (Sox17, AFP), mesoderm markers (MSX1, Brachyury) and ectodermal markers (PAX6). […] The expression level of each marker was evaluated by PCR using the obtained cDNA. […]

For assay [2], the system named is iPS cells 201B7 strain. The assay is described as follows: Cell number during ectodermal differentiation-induction in medium with β-NMN (Example 2). It is filed as cell-based, human. Conditions: ectoderm differentiation-inducing medium containing β-NMN 0.1, 0.25 or 1 mM; 2nd, 4th, 7th day after seeding; versus medium not containing β-NMN. How it is done: The effect of β-NMN on the ectodermal differentiation-induction of the iPS cells was examined. The 201B7 strain was used as the iPS cells. The iPS cells were seeded in a 12-well plate coated with Matrigel (manufactured by Corning Incorporated) according to the manufacturer's protocol at 8×10^5 cells/well. The cells in the 12-well plate were cultured in a culture medium prepared by adjusting an ectodermal differentiation-inducing culture medium of “STEMdiff Trilineage Differentiation kit” (manufactured by STEMCELL Technologies) to have a final concentration of β-NMN of 0, 0.1, 0.25, or 1 mM, and a final concentration of Rock inhibitor of 10 μM for 1 day. From the 1st day after seeding, the medium was replaced every day with a culture medium obtained by removing the Rock inhibitor from the culture medium at the time of seeding. Cells of the 2nd, 4th or 7th day after seeding were sampled and the cell numbers were counted. The time-dependent change in cell number of each sample is shown in FIG. 2(A), and the cell numbers of the 7th day after seeding are shown in FIG. 2(B). As a result, the number of cells cultured in the ectoderm differentiation-inducing culture medium containing β-NMN was larger than the number of cells cultured in the medium not containing β-NMN.

The subject of assay [3] is iPS cells 201B7 strain. The assay is described as follows: Cell number in mesodermal differentiation-induction after undifferentiated culture with β-NMN (Example 6). Conditions: β-NMN 0.25 or 1 mM in culture medium for iPS cells before mesodermal differentiation-induction; 7th day after seeding; versus no β-NMN. In kind it is cell-based, human. The procedure: The effects of culturing in the presence of β-NMN before induction of differentiation on the mesodermal differentiation-induction of iPS cells was examined. As the iPS cells, the 201B7 strain was used. The iPS cells were cultured in a culture dish in the same manner as in Example 5, and when the confluent reached 70 to 80%, the iPS cells were detached from the culture dish and collected. The collected iPS cells were seeded at 1×10^5 cells/well in a 24-well plate coated with Matrigel (manufactured by Corning Incorporated) according to the manufacturer's protocol. The cells in the 24-well plate were cultured for 1 day in a culture medium prepared by removing β-NMN from the culture medium when culturing in the culture dish and adjusting to have a final concentration of Rock inhibitor of 10 μM. From the 1st day after seeding, the medium was replaced every day with a culture medium for mesodermal differentiation-induction of “STEMdiff Trilineage Differentiation kit” (manufactured by STEMCELL Technologies). The cells of the 7th day after seeding were sampled and the cell numbers were counted. […]

Each structure is given as a SMILES string.

With `NC(=O)c1ccc[n+]([C@@H]2O[C@H](COP(=O)([O-])O)[C@@H](O)[C@H]2O)c1` [β-NMN, β-nicotinamide mononucleotide], in assay [1], the “expression level of each undifferentiated marker (Nanog, Sox2, Oct3/4, Lin28a, Klf4)” value is listed as “decreased” and the “expression level of the differentiated marker (Sox17, AFP, MSX1, Brachyury, PAX6)” value is on record as “increased”. The number of cells result in assay [2] is listed as “larger”. In addition, the “number of the cells” value in assay [3] is “larger”.
